BigSolDB 2.1

NC(=O)c1ccncc1
solubility (mole fraction)
Details	278.15 K	283.15 K	288.15 K	293.15 K	298.15 K	303.15 K	308.15 K	313.15 K	318.15 K	323.15 K
in DMAc	0.114	0.129	0.147	0.168	0.19	0.213	0.236	0.256	0.278	0.299
in DMF	0.13	0.135	0.147	0.157	0.17	0.181	0.193	0.208	0.221	0.24
in THF	0.0108	0.012	0.0143	0.0167	0.0194	0.0218	0.0247	0.0276	0.0308	0.0344
in acetone	0.00012	0.00014	0.00017	0.00021	0.00025	0.00029	0.00034	0.00039	0.00047	0.00057
in acetonitrile	0.00251	0.00313	0.00392	0.00473	0.00572	0.00695	0.00841	0.0102	0.0125	0.0152
in ethanol	0.0191	0.0221	0.0266	0.0307	0.0347	0.0407	0.0461	0.0548	0.0664	0.0796
in ethyl acetate	0.00272	0.00341	0.00414	0.00504	0.0062	0.00754	0.0105	0.0138	0.0172	0.0218
in isopropanol	0.0156	0.0182	0.0211	0.0253	0.0291	0.034	0.0381	0.0465	0.0559	0.0669
in isopropyl acetate	0.00204	0.00217	0.0025	0.00283	0.00328	0.00397	0.00505	0.00616	0.00734	0.00871
in methanol	0.0336	0.0392	0.0439	0.0515	0.0602	0.0678	0.0773	0.0911	0.103	0.122
in methyl acetate	0.00372	0.00431	0.00542	0.00668	0.00826	0.00969	0.0127	0.0152	0.0184	0.0218
in n-butanol	0.0172	0.0189	0.022	0.0248	0.0284	0.0319	0.0359	0.041	0.0482	0.0565
in n-pentanol	0.0126	0.0136	0.0152	0.0177	0.0204	0.0234	0.0279	0.033	0.039	0.046
in n-propanol	0.0218	0.0242	0.0275	0.0324	0.0374	0.0418	0.0455	0.0541	0.0639	0.0764
in n-propyl acetate	0.00198	0.00249	0.00323	0.00404	0.00494	0.00615	0.0072	0.00832	0.00937	0.0109
